In patent US7989602B2, “Synthetic molecules having immune activity” (The Malaghan Institute of Medical Research, priority 2003, dated 2011):
Like-named read-outs stand apart in the source and are kept apart here.

What was measured:
airway eosinophilia = experiment: OVA-induced airway eosinophilia mouse model; assay type: in vivo, C57B1/6J mice
[1] = tested on: C57BL-6 mouse spleen cells; experiment: Cytokine production in vitro by mouse spleen cells (ELISA); assay type: cell-based
[2] = 5 μg/ml in PBS, 24 hours, 10^6 cells per well, ELISA
[3] = 5 μg/ml, dissolved in Tween/PBS, PIM-2 control also in 0.02% Tween/PBS, 24 hours

Compound	IFNγ compared with PIM-2 control [1, 2]	IL-12 compared with PIM-2 control [1, 2]	induced production of IL-12 ([1]; in words, summary of Table 4)	induced production of IFNγ ([1]; in words, summary of Table 4)	further results
CCCCCCCCCCCCCCCCCC(=O)OCC(CO[C@H]1O[C@H](CO)[C@@H](O)[C@H](O)[C@@H]1O)OC(=O)CCCCCCCCCCCCCCCCC (mixture of isomers) [Compound 17, 1,2-di-O-stearoyl-3-O-α-D-mannopyranosylglycerol]	–	–	–	–	biological activity (airway eosinophilia; results not shown, stated in Example 2): not biologically active
CCCCCCCCCCCCCCCCCCOP(=O)([O-])OC(COC1OC(CO)C(O)C(O)C1O)COC1OC(CO)C(O)C(O)C1O.[Na+] [Compound 47, Sodium 2-O-(Octadecylphosphoryl)-1,3-bis-O-(α-D-mannopyranosyl)glycerol]	0.03	0.56	induced production	–	IL-4 compared with PIM-2 control [1, 2]: 1.94; IL-10 compared with PIM-2 control [1, 2]: 0.53; induced production of IL-4 ([1]; in words, summary of Table 4): greater levels; induced production of IL-10 ([1]; in words, summary of Table 4): induced production
CCCCCCCCCCCCCCCCCC(=O)OCC(COP(=O)(O)OC(COC1OC(CO)C(O)C(O)C1O)COC1OC(CO)C(O)C(O)C1O)OC(=O)CCCCCCCCCCCCCCCCC [Compound 15, Triethylammonium 2-O-(1,2-O-distearoyl-sn-glycero-3-phoshoryl)-1,3-bis-O-(α-D-mannopyranosyl)glycerol]	0.98	–	–	levels comparable to PIM-22,6	Mean Eosinophil Count (×10^6), least square means by test molecule type (airway eosinophilia; BAL 4 days after intranasal OVA challenge, intranasal treatment in 50 μl PBS, mean over dose rates 0, 0.02, 0.2, 2.0): 0.144 ×10^6
CCCCCCCCCCCCCCCCCC(=O)OC[C@H](COP(=O)([O-])OCCCOC1OC(CO)C(O)C(O)C1O)OC(=O)CCCCCCCCCCCCCCCCC.[Na+] (stereo partly shown) [Compound 31]	0.75	1.80	notable levels	notable levels	–
CCCCCCCCCCCCCCCCCC(=O)OC[C@H](COP(=O)([O-])O[C@@H]1CCCC[C@H]1OC1OC(CO)C(O)C(O)C1O)OC(=O)CCCCCCCCCCCCCCCCC.[Na+] (stereo partly drawn) [Compound 36, 1-O-(Sodium 1,2-di-O-stearoyl-sn-glycero-3-phosphoryl)-2-O-(-α-D-mannopyranosyl)-cyclohexane-1,2-diol]	0.05	1.59	levels greater than PIM-22,6	–	IL-4 compared with PIM-2 control [1, 2]: 4.29; IL-10 compared with PIM-2 control [1, 2]: 0.60; induced production of IL-4 ([1]; in words, summary of Table 4): levels greater than PIM-22,6
L-α-Phosphatidylinositol [reference compound]	0.39	–	–	–	–
CCCCCCCCCCCCCCCCCC(=O)OC[C@H](COP(=O)(O)OCCO[C@H]1O[C@H](CO)[C@@H](O)[C@H](O)[C@@H]1O)OC(=O)CCCCCCCCCCCCCCCCC [Compound 7, Triethylammonium 1-O-(1,2-di-O-stearoyl-sn-glycero-3-phosphoryl)-2-O-(α-D-mannopyranosyl)-1,2-ethanediol]	–	–	notable levels	notable levels	IFNγ compared with PIM-2 control [1, 3]: 1.26; IL-12 compared with PIM-2 control [1, 3]: 1.03
CCCCCCCCCCCCCCCCCC(=O)OC[C@H](COP(=O)([O-])OCCO[C@H]1O[C@H](CO[C@H]2O[C@H](CO)[C@@H](O)[C@H](O)[C@@H]2O)[C@@H](O)[C@H](O)[C@@H]1O)OC(=O)CCCCCCCCCCCCCCCCC.[Na+] [Compound 28, Sodium 1-O-(1,2-di-O-stearoyl-sn-glycero-3-phosphoryl)-2-O-[6-O-(α-D-mannopyranosyl)-α-D-mannopyranosyl]-1,2-ethanediol]	–	–	–	–	IFNγ compared with PIM-2 control [1]: 0.62; IL-10 compared with PIM-2 control [1]: 0.36; IL-12 compared with PIM-2 control [1]: 1.15; induced production of IFNγ [1]: notable levels; induced production of IL-12 [1]: notable levels
CCCCCCCCCCCCCCCCCC(=O)OC[C@H](COP(=O)([O-])OC(COC1OC(CO)C(O)C(O)C1O)COC1OC(CO)C(O)C(O)C1O)OC(=O)CCCCCCCCCCCCCCCCC.[Na+] (stereo partly drawn) [Compound 44, Sodium(1,2-di-O-stearoyl-sn-glycero-3-phoshoryl)-2-[1,3-bis-O-(α-D-galactopyranoside)]glycerol]	–	0.14	a small amount	–	induced production of IL-12 ([1]; in words, summary of Table 4, listed as compound 44): only a low level
